Reference: paper PMC2654417 (Combinatorial chemistry & high throughput screening, 2008)
Read-outs that look alike come from different tables or passages of the source. Each block holds one compound with its values, some of them ahead of it.

Columns and labels:
[1] = molecular target: T1, glucocorticoid receptor (GR) (Homo sapiens, UniProt P04150); assay: GR-EFC nuclear translocation assay; format: cell-based; conditions: for qHTS Hill Slope: Hill slope of the qHTS curve fit; for qHTS Max Activity: maximal activity of the qHTS curve, inactive threshold […] (3σ); for log qEC50: log10 of qEC50 in M, printed as negative values
T1 sequence (P04150 1-777): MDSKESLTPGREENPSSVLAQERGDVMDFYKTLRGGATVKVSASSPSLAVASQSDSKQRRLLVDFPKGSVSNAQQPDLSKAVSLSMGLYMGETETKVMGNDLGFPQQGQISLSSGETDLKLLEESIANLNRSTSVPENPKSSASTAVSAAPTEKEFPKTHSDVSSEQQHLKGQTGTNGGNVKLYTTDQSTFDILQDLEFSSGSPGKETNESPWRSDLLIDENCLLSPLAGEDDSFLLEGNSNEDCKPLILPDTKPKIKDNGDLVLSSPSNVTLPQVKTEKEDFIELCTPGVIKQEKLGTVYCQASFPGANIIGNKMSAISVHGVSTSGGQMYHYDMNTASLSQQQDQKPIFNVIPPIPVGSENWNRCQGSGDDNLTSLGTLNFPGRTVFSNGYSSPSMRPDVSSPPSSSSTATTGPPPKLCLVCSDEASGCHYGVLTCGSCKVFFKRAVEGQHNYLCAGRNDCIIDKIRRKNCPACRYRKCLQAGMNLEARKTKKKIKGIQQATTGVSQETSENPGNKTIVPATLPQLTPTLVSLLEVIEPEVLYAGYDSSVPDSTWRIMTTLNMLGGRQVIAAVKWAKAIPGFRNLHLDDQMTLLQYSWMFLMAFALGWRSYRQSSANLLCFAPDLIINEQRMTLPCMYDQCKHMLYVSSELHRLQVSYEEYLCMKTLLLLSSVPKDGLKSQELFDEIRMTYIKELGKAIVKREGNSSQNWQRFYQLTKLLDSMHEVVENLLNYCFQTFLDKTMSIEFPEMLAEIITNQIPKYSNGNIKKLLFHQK

[2] = molecular target: T1, glucocorticoid receptor (GR); conditions: GR-rich cell extract; cited from earlier work
[3] = class 4 values are fit defaults
[4] = read-out: qEC50, qHTS curve fit, class 4 values are fit defaults

SMILES: C[C@]12C[C@H](O)[C@H]3[C@@H](CCC4=CC(=O)CC[C@@]43C)[C@@H]1CC[C@@H]2C(=O)CO [Corticosterone, reference compound]
EC50 [1]: 0.036 µM
IC50/Kd [3H]dex binding assay [2]: 0.048 [39] μM

SMILES: C[C@@]12C[C@@H](O)[C@H]3[C@@H](CCC4=CC(=O)CC[C@]43C)[C@H]1CC[C@H]2C(=O)CO [NCGC00015222-01]
qHTS Hill Slope [1]: 0.77
log qEC50 [1, 3]: −6.747
qHTS Max Activity [1]: 64.0
EC50 [1, 4]: 0.179 µM

SMILES: C[C@@]12CC[C@H]3[C@@H](CCC4=C(O)C(=O)CC[C@]43C)[C@H]1CCC2=O [NCGC00015070-01]
EC50 [1, 4]: > 9 µM

SMILES: CC[C@@H]1Cc2cc(O)ccc2C2=C1c1ccc(O)cc1C[C@H]2CC [NCGC00015377-01]
qHTS Curve Class [1]: 4 (inactive, where activity was below 28.6% (3σ for the present assay))
EC50 ([1]; read-out: qEC50): > 9 µM

SMILES: CCC(=O)O[C@H]1CC[C@H]2[C@@H]3CCC4=CC(=O)CC[C@]4(C)[C@H]3CC[C@]12C [NCGC00016254-01]
EC50 [1, 4]: > 9 µM

SMILES: COc1cc2c(cc1OC)-c1c(OC)c(OC)c(CO)c3c1[C@H](C2)N(C)CC3 [NCGC00017307-01]
qHTS Curve Class [1]: 4 (inactive, where activity was below 28.6% (3σ for the present assay))
EC50 ([1]; read-out: qEC50): > 9 µM

SMILES: C[C@@]12CC[C@H]3[C@@H](CC[C@]4(O)C[C@H](O)CC[C@@]34C=O)[C@]1(O)CC[C@@H]2C1=CC(=O)OC1 [NCGC00016295-01]
EC50 [1, 4]: > 9 µM

SMILES: CCC[C@@H]1CC2=CC(=O)CC[C@]2(C)[C@@H]2CC[C@@]3(C)[C@H](CC[C@]3(O)CCC(=O)O)[C@H]12 [NCGC00025253-01]
EC50 [1, 4]: > 9 µM

SMILES: C[C@@]12CC[C@H]3[C@@H](CC[C@@H]4C[C@H](O)CC[C@]43C)[C@H]1CC[C@H]2O [NCGC00015090-01]
EC50 [1, 4]: > 9 µM

SMILES: C[C@H](CCC(=O)O)[C@H]1CC[C@H]2[C@@H]3[C@H](O)C[C@@H]4C[C@H](O)CC[C@]4(C)[C@H]3C[C@H](O)[C@]12C [NCGC00013426-01]
EC50 [1, 4]: > 9 µM

The next lines start with results.

qHTS Hill Slope [1]: 0.70
qHTS Max Activity [1]: 60.7
SMILES: C[C@@]12CCC(=O)C=C1CC[C@@H]1[C@@H]2[C@H](O)C[C@]2(C)[C@@H]1CC[C@]2(O)C(=O)CO [NCGC00016215-01]

EC50 [1, 4]: > 9 µM
SMILES: COc1ccc2c(c1)CC[C@H]1[C@H]2CC[C@]2(C)[C@H](NCCCCCCN3C(=O)C=CC3=O)CC[C@@H]12 [NCGC00016078-01]

EC50 ([1]; read-out: qEC50): > 9 µM
SMILES: C[C@@]12C=CC(=O)C=C1CC[C@@H]1C2=CC[C@]2(C)[C@@H]1CC[C@H]2C(=O)CN1CCN(c2cc(N3CCCC3)nc(N3CCCC3)n2)CC1 [NCGC00016076-01]
qHTS Curve Class [1]: 4 (inactive, where activity was below 28.6% (3σ for the present assay))

EC50 [1, 4]: > 9 µM
SMILES: C[C@@]12CC[C@@H]3c4ccc(O)cc4CC[C@H]3[C@H]1C[C@@H](O)[C@H]2O [NCGC00016217-01]

qHTS Hill Slope [1]: 0.69
log qEC50 [1, 3]: −7.725
qHTS Max Activity [1]: 104.7
EC50 [1, 4]: 0.0188 µM
SMILES: CC1(C)O[C@@H]2C[C@H]3[C@@H]4C[C@H](F)C5=CC(=O)CC[C@]5(C)[C@H]4[C@@H](O)C[C@]3(C)[C@]2(C(=O)CO)O1 [NCGC00016586-01]
